Experimental data taken from patent US9914730B2, “Azaquinazoline inhibitors of Atypical protein Kinase C” (Ignyta, Inc., priority 2012, dated 2018).

target: T1, full-length human PKCι (Homo sapiens, UniProt P41743); test: PKCι IC50 IMAP assay, full-length PKCι at 150 μM ATP; format: biochemical; conditions: read-out: IC50 in IMAP assay against full length PKCi at 150 μM ATP
T1 construct: Recombinant, full-length human PKCι expressed in Sf21 insect cells is also commercially available; purchased; host or cells: Sf21 insect cells
T1 sequence (P41743 1-596): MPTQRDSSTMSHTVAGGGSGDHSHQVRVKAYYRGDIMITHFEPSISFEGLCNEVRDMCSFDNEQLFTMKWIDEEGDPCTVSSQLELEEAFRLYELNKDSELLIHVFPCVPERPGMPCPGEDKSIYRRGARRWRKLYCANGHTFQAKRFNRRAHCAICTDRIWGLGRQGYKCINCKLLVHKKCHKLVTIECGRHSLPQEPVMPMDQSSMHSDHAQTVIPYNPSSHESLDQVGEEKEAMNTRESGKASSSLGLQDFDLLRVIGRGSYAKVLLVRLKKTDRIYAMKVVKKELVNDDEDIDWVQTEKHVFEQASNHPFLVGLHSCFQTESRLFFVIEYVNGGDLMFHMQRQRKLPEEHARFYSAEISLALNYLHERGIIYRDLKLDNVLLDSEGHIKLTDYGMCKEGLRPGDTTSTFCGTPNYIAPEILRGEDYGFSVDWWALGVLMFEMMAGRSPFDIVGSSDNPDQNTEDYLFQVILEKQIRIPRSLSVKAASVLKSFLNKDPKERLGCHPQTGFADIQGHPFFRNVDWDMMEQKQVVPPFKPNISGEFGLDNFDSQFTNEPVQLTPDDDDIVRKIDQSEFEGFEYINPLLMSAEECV
Procedure, shortened: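 IC50 from IMAP FP (ex 485/em 530 nm) after 60 min room-temperature reaction in pH 7.5 tris buffer with 9 mM MgCl2 and 0.9 mM DTT. Enzyme: full-length Sf21-expressed PKCι (~15 pM); ATP 150 μM, five times KM^APP; FAM-labelled peptide 100 nM; DMSO 4%.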

`c1ccc(-c2ccc(Nc3cc(-c4nc(N[C@@H]5CCNC5)c5ccncc5n4)ccn3)nc2)cc1` [Example 318, {2-[2-(5-Phenyl-pyridin-2-ylamino)-pyridin-4-yl]-pyrido[3,4-d]pyrimidin-4-yl}-(R)-pyrrolidin-3-yl-amine] and `COc1cncc2nc(-c3ccnc(Nc4ccc(-c5ccccc5)cn4)c3)nc(N[C@@H]3CCNC3)c12` [Example 329, {5-Methoxy-2-[2-(5-phenyl-pyridin-2-ylamino)-pyridin-4-yl]-pyrido[3,4-d]pyrimidin-4-yl}-(R)-pyrrolidin-3-yl-amine] cannot be ordered by IC50: less than 100 nM for the first, less than 100 nM for the second.

`c1cc2c(N[C@@H]3CCNC3)nc(-c3ccnc(Nc4ccc(N5CCOCC5)nc4)c3)nc2cn1` [Example 319, {2-[2-(6-Morpholin-4-yl-pyridin-3-ylamino)-pyridin-4-yl]-pyrido[3,4-d]pyrimidin-4-yl}-(R)-pyrrolidin-3-yl-amine] and `CN1CCN(c2ccc(Nc3cc(-c4nc(N[C@@H]5CCNC5)c5ccncc5n4)ccn3)cn2)CC1` [Example 320, (2-{2-[6-(4-Methyl-piperazin-1-yl)-pyridin-3-ylamino]-pyridin-4-yl}-pyrido[3,4-d]pyrimidin-4-yl)-(R)-pyrrolidin-3-yl-amine] cannot be ordered by IC50: less than 100 nM for the first, less than 100 nM for the second.

Compared with `N#Cc1ccnc(Nc2cc(-c3nc(N[C@@H]4CCNC4)c4ccncc4n3)ccn2)c1` [Example 321, 2-{4-[4-((R)-Pyrrolidin-3-ylamino)-pyrido[3,4-d]pyrimidin-2-yl]-pyridin-2-ylamino}-isonicotinonitrile], `Cc1ccnc(Nc2cc(-c3nc(N[C@@H]4CCNC4)c4ccncc4n3)ccn2)c1` [Example 338, {2-[2-(4-Methyl-pyridin-2-ylamino)-pyridin-4-yl]-pyrido[3,4-d]pyrimidin-4-yl}-(R)-pyrrolidin-3-yl-amine] is higher in IC50: less than 100 nM for the first, 1000 to 10000 nM for the second. The first is the more potent here.

First: c1cc2c(N[C@@H]3CCNC3)nc(-c3ccnc(Nc4ccc(Cn5ccnc5)cc4)c3)nc2cn1 [Example 322, {2-[2-(4-Imidazol-1-ylmethyl-phenylamino)-pyridin-4-yl]-pyrido[3,4-d]pyrimidin-4-yl}-(R)-pyrrolidin-3-yl-amine]
Second: COc1cncc2nc(-c3ccnc(Nc4ccc(Cn5ccnc5)cc4)c3)nc(N[C@@H]3CCNC3)c12 [Example 333, {2-[2-(4-Imidazol-1-ylmethyl-phenylamino)-pyridin-4-yl]-5-methoxy-pyrido[3,4-d]pyrimidin-4-yl}-(R)-pyrrolidin-3-yl-amine]
The IC50 of the first is lower: 100 to 1000 nM for the first, 1000 to 10000 nM for the second. The first is the more potent here.

`COc1cncc2nc(-c3ccnc(Nc4cccc(OCC(N)=O)c4)c3)nc(N[C@@H]3CCNC3)c12` [Example 323, 2-(3-{4-[5-Methoxy-4-((R)-pyrrolidin-3-ylamino)-pyrido[3,4-d]pyrimidin-2-yl]-pyridin-2-ylamino}-phenoxy)-acetamide] and `COc1cncc2nc(-c3ccnc(Nc4cccc(CC(N)=O)c4)c3)nc(N[C@@H]3CCNC3)c12` [Example 324, 2-(3-{4-[5-Methoxy-4-((R)-pyrrolidin-3-ylamino)-pyrido[3,4-d]pyrimidin-2-yl]-pyridin-2-ylamino}-phenyl)-acetamide] cannot be ordered by IC50: less than 100 nM for the first, less than 100 nM for the second.

First: COc1cncc2nc(-c3ccnc(NC(=O)Cc4cccc(N)c4)c3)nc(N[C@@H]3CCNC3)c12 [Example 325, 2-(3-Amino-phenyl)-N-{4-[5-methoxy-4-((R)-pyrrolidin-3-ylamino)-pyrido[3,4-d]pyrimidin-2-yl]-pyridin-2-yl}-acetamide]
Second: COc1cncc2nc(-c3ccnc(NC(=O)Cc4ccc(N)cc4)c3)nc(N[C@@H]3CCNC3)c12 [Example 327, 2-(4-Amino-phenyl)-N-{4-[5-methoxy-4-((R)-pyrrolidin-3-ylamino)-pyrido[3,4-d]pyrimidin-2-yl]-pyridin-2-yl}-acetamide]
The IC50 of the first is higher: 10000 to 40000 nM for the first, less than 100 nM for the second. The second is the more potent here.

First: COc1cncc2nc(-c3ccnc(Nc4ccc(CC(N)=O)cc4)c3)nc(N[C@@H]3CCNC3)c12 [Example 326, 2-(4-{4-[5-Methoxy-4-((R)-pyrrolidin-3-ylamino)-pyrido[3,4-d]pyrimidin-2-yl]-pyridin-2-ylamino}-phenyl)-acetamide]
Second: COc1cncc2nc(-c3ccnc(Nc4ccc(C#N)cn4)c3)nc(N[C@@H]3CCNC3)c12 [Example 344, 6-{4-[5-Methoxy-4-((R)-pyrrolidin-3-ylamino)-pyrido[3,4-d]pyrimidin-2-yl]-pyridin-2-ylamino}-nicotinonitrile]
The IC50 of the first is higher: 100 to 1000 nM for the first, less than 100 nM for the second. The second is the more potent here.

First: N#Cc1ccnc2c1ccn2-c1cc(-c2nc(N[C@@H]3CCNC3)c3ccncc3n2)ccn1 [Example 328, 1-{4-[4-((R)-Pyrrolidin-3-ylamino)-pyrido[3,4-d]pyrimidin-2-yl]-pyridin-2-yl}-1H-pyrrolo[2,3-b]pyridine-4-carbonitrile]
Second: N#Cc1ccc(Nc2cc(-c3nc(N[C@@H]4CCNC4)c4ccncc4n3)ccn2)nc1 [Example 341, 6-{4-[4-((R)-Pyrrolidin-3-ylamino)-pyrido[3,4-d]pyrimidin-2-yl]-pyridin-2-ylamino}-nicotinonitrile]
The IC50 of the first is higher: 1000 to 10000 nM for the first, less than 100 nM for the second. The second is the more potent here.

`COc1cncc2nc(-c3ccnc(Nc4ccc(N5CCOCC5)nc4)c3)nc(N[C@@H]3CCNC3)c12` [Example 330, {5-Methoxy-2-[2-(6-morpholin-4-yl-pyridin-3-ylamino)-pyridin-4-yl]-pyrido[3,4-d]pyrimidin-4-yl}-(R)-pyrrolidin-3-yl-amine] and `COc1cncc2nc(-c3ccnc(Nc4ccc(N5CCN(C)CC5)nc4)c3)nc(N[C@@H]3CCNC3)c12` [Example 331, (5-Methoxy-2-{2-[6-(4-methyl-piperazin-1-yl)-pyridin-3-ylamino]-pyridin-4-yl}-pyrido[3,4-d]pyrimidin-4-yl)-(R)-pyrrolidin-3-yl-amine] cannot be ordered by IC50: less than 100 nM for the first, less than 100 nM for the second.

`COc1cncc2nc(-c3ccnc(Nc4cc(C#N)ccn4)c3)nc(N[C@@H]3CCNC3)c12` [Example 332, 2-{4-[5-Methoxy-4-((R)-pyrrolidin-3-ylamino)-pyrido[3,4-d]pyrimidin-2-yl]-pyridin-2-ylamino}-isonicotinonitrile] and `Clc1ccnc(Nc2cc(-c3nc(N[C@@H]4CCNC4)c4ccncc4n3)ccn2)c1` [Example 339, {2-[2-(4-Chloro-pyridin-2-ylamino)-pyridin-4-yl]-pyrido[3,4-d]pyrimidin-4-yl}-(R)-pyrrolidin-3-yl-amine] cannot be ordered by IC50: less than 100 nM for the first, less than 100 nM for the second.

Compared with `O=C(Cc1ccccc1)Nc1cc(-c2nc(N[C@@H]3CCNC3)c3ccncc3n2)ccn1` [Example 334, 2-Phenyl-N-{4-[4-((R)-pyrrolidin-3-ylamino)-pyrido[3,4-d]pyrimidin-2-yl]-pyridin-2-yl}-acetamide], `COc1ccccc1CC(=O)Nc1cc(-c2nc(N[C@@H]3CCNC3)c3ccncc3n2)ccn1` [Example 336, 2-(2-Methoxy-phenyl)-N-{4-[4-((R)-pyrrolidin-3-ylamino)-pyrido[3,4-d]pyrimidin-2-yl]-pyridin-2-yl}-acetamide] is lower in IC50: 1000 to 10000 nM for the first, 100 to 1000 nM for the second.

Compared with `COc1ccc(CC(=O)Nc2cc(-c3nc(N[C@@H]4CCNC4)c4ccncc4n3)ccn2)cc1` [Example 335, 2-(4-Methoxy-phenyl)-N-{4-[4-((R)-pyrrolidin-3-ylamino)-pyrido[3,4-d]pyrimidin-2-yl]-pyridin-2-yl}-acetamide], `COc1cccc(CC(=O)Nc2cc(-c3nc(N[C@@H]4CCNC4)c4ccncc4n3)ccn2)c1` [Example 337, 2-(3-Methoxy-phenyl)-N-{4-[4-((R)-pyrrolidin-3-ylamino)-pyrido[3,4-d]pyrimidin-2-yl]-pyridin-2-yl}-acetamide] is lower in IC50: 100 to 1000 nM for the first, less than 100 nM for the second.

`N#Cc1ccnc(Nc2cc(-c3nc(N4CCNCC4)c4ccncc4n3)ccn2)c1` [Example 342, 2-[4-(4-piperazin-1-yl-pyrido[3,4-d]pyrimidin-2-yl)-pyridin-2-ylamino]-isonicotinonitrile] and `c1cc2c(N[C@@H]3CCNC3)nc(-c3ccnc(Nc4cc(N5CCOCC5)ccn4)c3)nc2cn1` [Example 343, {2-[2-(4-Morpholin-4-yl-pyridin-2-ylamino)-pyridin-4-yl]-pyrido[3,4-d]pyrimidin-4-yl}-(R)-pyrrolidin-3-yl-amine] fall in the same range of IC50: 100 to 1000 nM for the first, 100 to 1000 nM for the second.

`Cc1ccc(Nc2cc(-c3nc(N[C@@H]4CCNC4)c4ccncc4n3)ccn2)nc1` [Example 345, {2-[2-(5-Methyl-pyridin-2-ylamino)-pyridin-4-yl]-pyrido[3,4-d]pyrimidin-4-yl}-(R)-pyrrolidin-3-yl-amine] and `Clc1ccc(Nc2cc(-c3nc(N[C@@H]4CCNC4)c4ccncc4n3)ccn2)nc1` [Example 346, {2-[2-(5-Chloro-pyridin-2-ylamino)-pyridin-4-yl]-pyrido[3,4-d]pyrimidin-4-yl}-(R)-pyrrolidin-3-yl-amine] cannot be ordered by IC50: less than 100 nM for the first, less than 100 nM for the second.

`c1cc(Nc2cc(-c3nc(N[C@@H]4CCNC4)c4ccncc4n3)ccn2)ncn1` [Example 347, {2-[2-(Pyrimidin-4-ylamino)-pyridin-4-yl]-pyrido[3,4-d]pyrimidin-4-yl}-(R)-pyrrolidin-3-yl-amine] and `N#Cc1cccc(CC(=O)Nc2cc(-c3nc(N[C@@H]4CCNC4)c4ccncc4n3)ccn2)c1` [Example 348, 2-(3-Cyano-phenyl)-N-{4-[4-((R)-pyrrolidin-3-ylamino)-pyrido[3,4-d]pyrimidin-2-yl]-pyridin-2-yl}-acetamide] cannot be ordered by IC50: less than 100 nM for the first, less than 100 nM for the second.
